Here are results for 17 molecules from US7576108B2, “Substituted arylcyclopropylacetamides as glucokinase activators” (Eli Lilly and Company, priority 2003, dated 2009).

Molecules are shown by their SMILES. pEC50: −log10 of the molar value.

What is called pEC50 is the EC50 on a negative log10 scale, so that one unit is a factor of ten.

This experiment addresses T1, purified recombinant human islet GK (Homo sapiens, UniProt P35557).
T1 construct: (His)6; made in house; host or cells: E. coli
T1 sequence (P35557 1-465): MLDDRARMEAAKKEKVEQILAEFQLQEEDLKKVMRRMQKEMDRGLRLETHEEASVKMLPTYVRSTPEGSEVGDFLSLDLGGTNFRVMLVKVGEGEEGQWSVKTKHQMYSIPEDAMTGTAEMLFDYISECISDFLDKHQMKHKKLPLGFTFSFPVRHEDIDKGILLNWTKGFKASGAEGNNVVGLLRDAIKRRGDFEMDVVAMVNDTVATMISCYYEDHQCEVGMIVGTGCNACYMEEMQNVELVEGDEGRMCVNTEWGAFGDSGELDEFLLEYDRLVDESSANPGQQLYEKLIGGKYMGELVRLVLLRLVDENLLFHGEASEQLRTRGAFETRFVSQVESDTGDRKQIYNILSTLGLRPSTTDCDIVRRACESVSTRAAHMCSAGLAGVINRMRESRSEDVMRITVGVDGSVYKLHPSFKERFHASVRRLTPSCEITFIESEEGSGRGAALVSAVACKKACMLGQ
The experiment can be described thus: Enzymatic coupled glucokinase (GK) assay (NADH production, absorbance at 340 nm). It is filed as biochemical. Conditions: concentration of activator that produced 50% of maximum increase in the activity of GK; at 10 mM glucose. An excerpt:
An enzymatic coupled glucokinase (GK) assay using purified recombinant human islet GK was used to evaluate effects of the activators. In this assay, GK catalyzes glucose phosphorylation in the presence of ATP. The product of this reaction, glucose-6-phosphate, is then oxidized by an excess of glucose-6-dehydrogenase to produce gluconate-6-phosphate with concomitant reduction of NAD^+ to NADH (Davidson and Arion, 1987). The following outlines the two reactions involved: • Glucose+ATP→Glucose-6-P+ADP (Glucokinase) • Glucose-6-P+NAD→Gluconate-6-P+NADH (glucose-6-P dehydrogenase)
The NADH production detected by absorbance at 340 nm is used to monitor the enzymatic activity.
The human islet GK isoform was expressed in E. coli as (His)6-tagged fusion protein and purified with metal chelate affinity chromatography (Tiedge et al., 1997). After purification the enzyme was stored in aliquots at concentration 0.8 mg/ml in 25 mM NaH2PO4, 150 mM NaCl, 100 mM imidazole, 1 mM DTT, 50% glycerol at −80° C.
The assay was performed in flat bottom 96-well plates in a final incubation volume of 100 μl. The incubation mixture consisted of 25 mM HEPES (pH7.4), 50 mM KCl, 2.5 mM MgCl2, 2 mM dithiothreitol, 4 U/ml glucose-6-phosphate dehydrogenase from Leuconostoc mesenteroides, 5 mM ATP, 1 mM NAD and 10 mM glucose. All reagents were from Sigma-Aldrich Co. (St. Louis, Mo.). Test compounds were dissolved in DMSO and then added to the reaction mixture giving the final DMSO concentration of 10%.
The reaction was initiated by addition of 20 μl GK and run for 20 min at 37° C. The amount of formed NADH was measured as an increase in absorbance at 340 nm using a microplate reader.
The concentration of activator that produced 50% of maximum increase in the activity of GK (EC50) was calculated.
In the case of `CS(=O)(=O)c1ccc([C@@]2(C(=O)Nc3nccs3)C[C@H]2CC2CCCCC2)cc1` (racemic) [Example 2, (±)-(E)-2-Cyclohexylmethyl-1-(4-methanesulfonyl-phenyl)-cyclopropanecarboxylic acid thiazol-2-ylamide], the pEC50 was 5.93.

For `CC(C)C[C@@H]1C[C@]1(C(=O)Nc1nccs1)c1ccc(S(C)(=O)=O)cc1` (racemic) [Example 3, (±)-(E)-2-Isobutyl-1-(4-methanesulfonyl-phenyl)-cyclopropanecarboxylic acid thiazol-2-ylamide], the pEC50 is 5.26.

In the case of `CCN(CC)CCCS(=O)(=O)c1ccc([C@@]2(C(=O)Nc3nccs3)C[C@H]2C2CCCCC2)cc1` (racemic) [Example 7, (±)-(E)-2-Cyclohexyl-1-[4-(3-diethylamino-propane-1-sulfonyl)-phenyl]-cyclopropanecarboxylic acid thiazol-2-ylamide], the pEC50 was 6.15.

With `Cc1nnc(NC(=O)[C@]2(c3ccc(S(C)(=O)=O)cc3)C[C@H]2C2CCCC2)s1` (racemic) [Example 11, (±)-(E)-2-Cyclopentyl-1-(4-methanesulfonyl-phenyl)-cyclopropanecarboxylic acid (5-methyl-[1,3,4]thiadiazol-2-yl)-amide], the pEC50 was 5.03.

With `Cc1cc(NC(=O)[C@]2(c3ccc(S(C)(=O)=O)cc3)C[C@H]2C2CCCC2)no1` (racemic) [Example 13, (±)-(E)-2-Cyclopentyl-1-(4-methanesulfonyl-phenyl)-cyclopropanecarboxylic acid (5-methyl-isoxazol-3-yl)-amide], the pEC50 was 4.90.

Regarding `CS(=O)(=O)c1csc([C@@]2(C(=O)Nc3nccs3)C[C@H]2C2CCCC2)c1` (racemic) [Example 20, (±)-(Z)-2-Cyclopentyl-1-(4-methanesulfonyl-thiophen-2-yl)-cyclopropanecarboxylic acid thiazol-2-ylamide], the pEC50 is 5.72.

Turning to `CS(=O)(=O)c1cccc([C@@]2(C(=O)Nc3nccs3)C[C@H]2C2CCCCC2)c1` (racemic) [Example 35, (±)-(E)-2-Cyclohexyl-1-(3-methanesulfonyl-phenyl)-cyclopropanecarboxylic acid thiazol-2-ylamide], the pEC50 was 5.12.

For the molecule `CS(=O)(=O)c1ccc([C@@]2(C(=O)Nc3nccs3)C[C@H]2C2CCCCC2)cc1C(F)(F)F` (racemic) [Example 45, (±)-(E)-2-Cyclohexyl-1-(4-methanesulfonyl-3-trifluoromethyl-phenyl)-cyclopropanecarboxylic acid thiazol-2-ylamide], the pEC50 is 6.80.

Turning to `COc1ccc([C@@]2(C(=O)Nc3nccs3)C[C@H]2C2CCCCC2)cc1` (racemic) [Example 48, (±)-(E)-[2-Cyclohexyl-1-(4-methoxy-phenyl)-cyclopropanecarboxylic acid thiazol-2-ylamide]], the pEC50 was 5.06.

On to `CNC(=O)c1ccc([C@@]2(C(=O)Nc3nccs3)C[C@H]2C2CCCCC2)cc1` (racemic) [Example 50, (±)-(E)4-[2-Cyclohexyl-1-(thiazol-2-ylcarbamoyl)-cyclopropyl]-N-methyl-benzamide], for which the pEC50 was 5.12.

For the molecule `CC(=O)Nc1ccc([C@@]2(C(=O)Nc3nccs3)C[C@H]2C2CCCCC2)cc1` (racemic) [Example 51, (±)-(E)-1-(4-Acetylamino-phenyl)-2-cyclohexyl-cyclopropanecarboxylic acid thiazol-2-ylamide], the pEC50 was 4.98.

Take `CS(=O)(=O)Nc1ccc([C@@]2(C(=O)Nc3nccs3)C[C@H]2C2CCCCC2)cc1` (racemic) [Example 52, (±)-(E)-2-Cyclohexyl-1-(4-methanesulfonylamino-phenyl)-cyclopropanecarboxylic acid thiazol-2-ylamide]: the pEC50 was 5.42.

As for `COC(=O)c1ccc([C@@]2(C(=O)Nc3nccs3)C[C@H]2C2CCCC2)cc1` (racemic) [Example 73, (±)-(E)-4-[2-Cyclopentyl-1-(thiazol-2-ylcarbamoyl)-cyclopropyl]-benzoic acid methyl ester], the pEC50 was 5.44.

As to `Cc1cnc(NC(=O)[C@]2(c3ccc(S(C)(=O)=O)cc3)C[C@H]2C2CCCCC2)s1` (racemic) [Example 77, (±)-(E)-2-Cyclohexyl-1-(4-methanesulfonyl-phenyl)-cyclopropanecarboxylic acid (5-methyl-thiazol-2-yl)-amide], the pEC50 was 6.41.

Consider `CS(=O)(=O)c1ccc([C@@]2(C(=O)Nc3nccs3)C[C@H]2C2CCCCC2)cc1` (single isomer, unassigned) [55 (Isomer 1)], for which the pEC50 was 6.82.

As to `CS(=O)(=O)c1ccc(C2(C(=O)Nc3nccs3)C(C3CCCCC3)C2(F)F)cc1` (single isomer, unassigned) [63 (Isomer 2), (±)-(E)-3-Cyclohexyl-2,2-difluoro-1-(4-methanesulfonyl-phenyl)-cyclopropanecarboxylic acid thiazol-2-ylamide], the pEC50 was 5.28.

In the case of `O=C(Nc1nccs1)[C@]1(c2ccc(S(=O)(=O)NCCc3ccccn3)cc2)C[C@H]1C1CCCC1` (single isomer, unassigned) [Example 26, (E)-2-Cyclopentyl-1-[4-(2-pyridin-2-yl-ethylsulfamoyl)-phenyl]-cyclopropanecarboxylic acid thiazol-2-ylamide], the pEC50 was 6.44.
